Values belong to the molecule of their own block, whether it stands above or below them.
What was measured:
[1] = Quantum yield measurements versus Acridine Yellow in EtOH; type: physicochemical; settings: for φ (%): quantum yield; for φ (quantum yield): excitation 460 nm
Procedure: (§1) ^1H-NMR, ^19F-NMR and ^13C-NMR spectra were recorded on Bruker ACF300 (300 MHz), DPX300 (300 MHz) and AMX500 (500 MHz) spectrometers. High resolution mass spectra (ESI) were obtained on a Finnigan/MAT 95XL-T spectrometer. Spectroscopic and quantum yield data were measured on a SpectraMax M2 spectrophotometer (Molecular Devices). Data analysis was performed using GraphPrism 5.0. Analytical characterization was performed on a HPLC-MS (Agilent-1200 series) with a DAD detector and a single quadrupole mass spectrometer (6130 series) with an ESI probe. Analytical HPLC method: eluents, A: H2O (0.1% HCOOH), B: CH3CN (0.1% HCOOH), gradient 5% B to 95% B (10 min). Reverse-phase Phenomenex C18 Luna column (4.6×50 mm^2, 3.5 […]), flow rate: 1 mL/min.
Quantum yields were calculated by measuring the integrated emission area of the fluorescent spectra and comparing to the area measured for Acridine Yellow in EtOH when excited at 460 nm (Φfluorescence^AcridineYellow=0.47). Quantum yields for the amino-triazolyl-BODIPYs were calculated using the equation below, where F represents the area of fluorescent emission, η is the refractive index of the solvent, and Abs is absorbance at the excitation wavelength selected for standards and samples. Emission was integrated between 510 and 700 nm.

[2] = Absorbance and fluorescence emission spectra (SpectraMax M2); type: physicochemical; settings: for λmax Absorp. (nm) / λmax Emission (nm): MKCA compound library; for λmax Absorp. (nm) / λmax Abs. (nm): absorbance maximum; for λmax Emission (nm) / λmax Em. (nm): fluorescence emission maximum; for λmax Abs. (nm) / λmax Em. (nm): MKAC compound library
Procedure: BDC-8 (Blue): absorbance λmax=473 nm, emission λmax=585 nm; MK101-8 (Green): absorbance λmax=474 nm, emission λmax=563 nm; MKHA374-48 (Yellow): absorbance λmax=468 nm, λem=557 nm. The corresponding spectra of a reported BODIPY (BD-27; Red) are also included for comparison: absorbance λmax=551 nm, emission λmax=568 nm. The structures of BDC-8, MK101-8, MKHA374-48 and BD-27 are also depicted.
as §1

φ (%) ([1]; MKCA compound library): 4.60%
λmax Absorp. (nm) [2]: 468 nm
λmax Emission (nm) [2]: 581 nm
Compound: CC1CN(C2=[N+]3C(=C(c4ccc(NC(=O)CCl)cc4)c4ccc(-n5cc(C6CCCC6)nn5)n4[B-]3(F)F)C=C2)CC(C)O1 (stereo not drawn) [MKCA20-5]

φ (quantum yield) ([1]; MK library, Table 5): 1.71%
λmax Absorp. ([2]; MK library, Table 5): 474 nm
λmax Emission ([2]; MK library, Table 5): 564 nm
Compound: CCCC(C)c1cn(-c2ccc3n2[B-](F)(F)[N+]2=C(NCc4ccccc4OCC)C=CC2=C3c2ccc(N)cc2)nn1 (stereo not drawn) [MK103-3]

φ (quantum yield) ([1]; MK library, Table 5): 0.37%
λmax Absorp. ([2]; MK library, Table 5): 475 nm
λmax Emission ([2]; MK library, Table 5): 566 nm
Compound: COc1ccc(OC)c(CNC2=[N+]3C(=C(c4ccc(N)cc4)c4ccc(-n5cc(CC(C)C)nn5)n4[B-]3(F)F)C=C2)c1 [MK181-43]

φ (quantum yield) ([1]; MK library, Table 5): 0.63%
λmax Absorp. ([2]; MK library, Table 5): 476 nm
λmax Emission ([2]; MK library, Table 5): 562 nm
Compound: CCCC(C)c1cn(-c2ccc3n2[B-](F)(F)[N+]2=C(NCc4cc(F)cc(F)c4)C=CC2=C3c2ccc(N)cc2)nn1 (stereo not drawn) [MK412-3]

φ (quantum yield) ([1]; MK library, Table 5): 2.28%
λmax Absorp. ([2]; MK library, Table 5): 474 nm
λmax Emission ([2]; MK library, Table 5): 563 nm
Compound: CCCCCC(O)c1cn(-c2ccc3n2[B-](F)(F)[N+]2=C(NCc4ccccc4OCC)C=CC2=C3c2ccc(N)cc2)nn1 (stereo not drawn) [MK103-69]

φ (%) ([1]; MKAC compound library): 3.48%
λmax Abs. (nm) [2]: 466 nm
λmax Em. (nm) [2]: 580 nm
Compound: CC(=O)Nc1ccc(C2=C3C=CC(N(C)Cc4ccccc4)=[N+]3[B-](F)(F)n3c2ccc3-n2cc(CC(C)C)nn2)cc1 [MKAC195-43]

φ (quantum yield) ([1]; BDC library, Table 2): 0.13%
λmax Absorp. ([2]; BDC library, Table 2): 475 nm
λmax Emission ([2]; BDC library, Table 2): 583 nm
Compound: CCCCCCCCc1cn(-c2ccc3n2[B-](F)(F)[N+]2=C(N4CCCCC4)C=CC2=C3c2ccc(N)cc2)nn1 [BDC-44]

φ (quantum yield) ([1]; BDCCA library, Table 4): 0.7%
λmax Absorp. ([2]; BDCCA library, Table 4): 465 nm
λmax Emission ([2]; BDCCA library, Table 4): 587 nm
Compound: CN(Cc1ccccc1)Cc1cn(-c2ccc3n2[B-](F)(F)[N+]2=C(N4CCCCC4)C=CC2=C3c2ccc(NC(=O)CCl)cc2)nn1 [BDCCA-18]

φ (quantum yield) ([1]; MK library, Table 5): 1.55%
λmax Absorp. ([2]; MK library, Table 5): 474 nm
λmax Emission ([2]; MK library, Table 5): 563 nm
Compound: CCCc1cn(-c2ccc3n2[B-](F)(F)[N+]2=C(NCc4cc(F)cc(F)c4)C=CC2=C3c2ccc(N)cc2)nn1 [MK412-48]

φ (quantum yield) ([1]; MK library, Table 5): 0.14%
λmax Absorp. ([2]; MK library, Table 5): 479 nm
λmax Emission ([2]; MK library, Table 5): 596 nm
Compound: Nc1ccc(C2=C3C=CC(N4CCc5ccccc5C4)=[N+]3[B-](F)(F)n3c2ccc3-n2cc(CO)nn2)cc1 [MK66-70]

φ (quantum yield) ([1]; BDC library, Table 2): 0.19%
λmax Absorp. ([2]; BDC library, Table 2): 469 nm
λmax Emission ([2]; BDC library, Table 2): 549 nm
Compound: Nc1ccc(C2=C3C=CC(N4CCCCC4)=[N+]3[B-](F)(F)n3c2ccc3-n2cc(-c3ccc(OC(F)(F)F)cc3)nn2)cc1 [BDC-15]

φ (quantum yield) ([1]; BDCAC library, Table 3): 1.4%
λmax Absorp. ([2]; BDCAC library, Table 3): 467 nm
λmax Emission ([2]; BDCAC library, Table 3): 567 nm
Compound: CCCCCCCc1cn(-c2ccc3n2[B-](F)(F)[N+]2=C(N4CCCCC4)C=CC2=C3c2ccc(NC(C)=O)cc2)nn1 [BDCAC-50]

φ (quantum yield) ([1]; BDCAC library, Table 3): 1.4%
λmax Absorp. ([2]; BDCAC library, Table 3): 465 nm
λmax Emission ([2]; BDCAC library, Table 3): 578 nm
Compound: CCc1ccc(-c2cn(-c3ccc4n3[B-](F)(F)[N+]3=C(N5CCCCC5)C=CC3=C4c3ccc(NC(C)=O)cc3)nn2)cc1 [BDCAC-46]

φ (%) ([1]; MKCA compound library): 6.28%
λmax Absorp. (nm) [2]: 464 nm
λmax Emission (nm) [2]: 562 nm
Compound: O=C(CCl)Nc1ccc(C2=C3C=CC(NCc4cc(F)cc(F)c4)=[N+]3[B-](F)(F)n3c2ccc3-n2cc(CO)nn2)cc1 [MKCA412-70]

φ (quantum yield) ([1]; BDC library, Table 2): 0.18%
λmax Absorp. ([2]; BDC library, Table 2): 471 nm
λmax Emission ([2]; BDC library, Table 2): 585 nm
Compound: Nc1ccc(C2=C3C=CC(N4CCCCC4)=[N+]3[B-](F)(F)n3c2ccc3-n2cc(-c3ccc(F)c(F)c3)nn2)cc1 [BDC-16]

φ (quantum yield) ([1]; MK library, Table 5): 0.70%
λmax Absorp. ([2]; MK library, Table 5): 474 nm
λmax Emission ([2]; MK library, Table 5): 566 nm
Compound: Cc1ccccc1CNC1=[N+]2C(=C(c3ccc(N)cc3)c3ccc(-n4cc(C5CC5)nn4)n3[B-]2(F)F)C=C1 [MK101-4]

φ (quantum yield) ([1]; MK library, Table 5): 1.98%
λmax Absorp. ([2]; MK library, Table 5): 476 nm
λmax Emission ([2]; MK library, Table 5): 563 nm
Compound: CCCCCC(O)c1cn(-c2ccc3n2[B-](F)(F)[N+]2=C(NCc4cc(F)cc(F)c4)C=CC2=C3c2ccc(N)cc2)nn1 (stereo not drawn) [MK412-69]

φ (%) ([1]; MKAC compound library): 24.16%
λmax Abs. (nm) [2]: 467 nm
λmax Em. (nm) [2]: 562 nm
Compound: CC(=O)Nc1ccc(C2=C3C=CC(NCc4cc(F)cc(F)c4)=[N+]3[B-](F)(F)n3c2ccc3-n2cc(CCc3ccccc3)nn2)cc1 [MKAC412-19]
